Experiment [1] deals with Serine/threonine-protein kinase pim-1 (Homo sapiens, UniProt P11309). In words: Pim Kinase Assay. The following applies: pH 7.5; 22 °C. As to the method:
(§1) Assays were conducted in 384-well v-bottom polypropylene plates. Test compound was mixed with Pim and biotinylated peptide substrate, followed by immediate initiation with [gamma-33 P]ATP. Reactions were quenched and transferred to 384-well streptavidin-coated plates. After incubation, radioactivity was counted on a TopCount Scintillation Plate Reader (Packard).

Experiment [2] concerns the target Serine/threonine-protein kinase pim-2 (Homo sapiens, UniProt Q9P1W9). In words: Pim Kinase Assay. The following applies: pH 7.5; 22 °C. As to the method:
as §1

Where only a bound is given, the exact number is not on record here.

Sequence of Serine/threonine-protein kinase pim-1 (P11309 whole entry): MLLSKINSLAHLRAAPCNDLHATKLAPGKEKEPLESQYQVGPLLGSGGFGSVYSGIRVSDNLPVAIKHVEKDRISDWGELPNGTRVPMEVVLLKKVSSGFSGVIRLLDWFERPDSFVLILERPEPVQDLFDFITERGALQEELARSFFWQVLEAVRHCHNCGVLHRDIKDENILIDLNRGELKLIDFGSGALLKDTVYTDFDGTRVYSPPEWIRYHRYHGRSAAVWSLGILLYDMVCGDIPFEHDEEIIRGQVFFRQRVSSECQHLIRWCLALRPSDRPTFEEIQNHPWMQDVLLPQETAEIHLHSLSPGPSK
Sequence of Serine/threonine-protein kinase pim-2 (Q9P1W9 whole entry): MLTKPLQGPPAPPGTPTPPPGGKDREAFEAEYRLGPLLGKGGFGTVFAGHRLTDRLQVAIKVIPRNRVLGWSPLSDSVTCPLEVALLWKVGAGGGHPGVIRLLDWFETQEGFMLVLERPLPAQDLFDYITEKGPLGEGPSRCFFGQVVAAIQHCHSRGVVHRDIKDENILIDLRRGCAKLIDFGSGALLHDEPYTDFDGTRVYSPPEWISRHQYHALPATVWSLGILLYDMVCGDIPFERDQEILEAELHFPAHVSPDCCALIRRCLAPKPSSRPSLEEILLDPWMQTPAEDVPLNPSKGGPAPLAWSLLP

Regarding `CC(C)n1c2noc(=O)c-2c(O)c2cc(F)c(Cl)cc21` [7-chloro-6-fluoro-9-(propan-2-yl)-1H,3H,4H,9H-quinolino[2,3-c][1,2]oxazole-3,4-dione], the Ki (in general, a measure of affinity in units of concentration, obtained from inhibition or displacement) came to 12.3 nM in experiment [1] and 62.8 nM in experiment [2].
The corresponding values for `CCn1c2cc(Cl)c(F)cc2c(=O)c2c(=O)on(C)c21` [7-chloro-9-ethyl-6-fluoro-1-methyl-1H,3H,4H,9H-quinolino[2,3-c][1,2]oxazole-3,4-dione] are 50.1 nM and above 1420 nM.
The compound `CCn1c2noc(=O)c-2c(O)c2cc(O)c(Cl)cc21` [7-chloro-9-ethyl-6-hydroxy-1H,3H,4H,9H-quinolino[2,3-c][1,2]oxazole-3,4-dione] returned an inhibitory constant (Ki) in experiment [2] of 43.5 nM.
Consider `CCn1c2noc(=O)c-2c(O)c2cc(OC)c(Cl)cc21` [7-chloro-9-ethyl-6-methoxy-1H,3H,4H,9H-quinolino[2,3-c][1,2]oxazole-3,4-dione], for which the results for the inhibition constant (Ki) in experiment [1] and in experiment [2] were 2700 nM and above 1420 nM, respectively.
Consider `O=c1onc2n(Cc3ccccc3)c3cc(Cl)c(F)cc3c(O)c1-2` [9-benzyl-7-chloro-6-fluoro-1H,3H,4H,9H-quinolino[2,3-c][1,2]oxazole-3,4-dione], for which the Ki was 36.5 nM in experiment [1] and 558 nM in experiment [2].
Regarding `CCCCn1c2noc(=O)c-2c(O)c2cc(F)c(Cl)cc21` [9-butyl-7-chloro-6-fluoro-1H,3H,4H,9H-quinolino[2,3-c][1,2]oxazole-3,4-dione], the Ki is 15 nM in experiment [1] and 165 nM in experiment [2].

(Values after BindingDB's records for doi:10.1016/j.bmcl.2008.08.079 (Abbott Laboratories, 2008).)
